Reference: US6242494A, “Substituted β-amino acid inhibitors of methionine aminopeptidase-2” (Abbott Laboratories, priority 1999, dated 2001)
Where a name gives a salt, the structure may show the parent alone.

Target: T1, methionine aminopeptidase-2 (MetAP2) (Homo sapiens, UniProt P50579)
T1 construct: made in house; host or cells: insect cells, baculovirus system (secreted, purified from culture supernatant)
Test: Inhibition of MetAP2 enzyme activity (96-well, Met-Ala-Ser substrate, L-amino acid oxidase/peroxidase/ortho-dianisidine, 450 nm)
Type: biochemical
Details: IC50, recombinant MetAP2 4 μg/mL, pH 7.4, Met-Ala-Ser substrate, 20 minutes

T1 sequence (P50579 whole entry): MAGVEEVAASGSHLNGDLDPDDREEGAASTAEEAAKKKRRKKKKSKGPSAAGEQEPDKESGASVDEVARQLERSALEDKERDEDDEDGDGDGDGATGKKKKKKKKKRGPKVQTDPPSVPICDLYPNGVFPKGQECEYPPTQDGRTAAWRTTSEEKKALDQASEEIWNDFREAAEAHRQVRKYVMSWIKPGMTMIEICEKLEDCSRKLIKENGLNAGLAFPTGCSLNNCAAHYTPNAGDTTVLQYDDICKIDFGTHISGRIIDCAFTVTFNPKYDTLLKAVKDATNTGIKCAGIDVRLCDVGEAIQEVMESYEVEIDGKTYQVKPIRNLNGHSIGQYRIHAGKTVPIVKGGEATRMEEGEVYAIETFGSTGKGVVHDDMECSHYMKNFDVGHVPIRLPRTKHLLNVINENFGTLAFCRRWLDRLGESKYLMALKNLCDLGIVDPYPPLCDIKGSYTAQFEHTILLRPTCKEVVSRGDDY

Compared with `N[C@H](CC1CCCCC1)C(O)C(=O)NC1CCCC1` (mixture of isomers) [Example 207, (2RS,3R)-3-amino-4-cyclohexyl-N-cyclopentyl-2-hydroxybutanamide Hydrochloride], `N[C@H](CC1CCCCC1)C(O)C(=O)NC1CCC1` (mixture of isomers) [Example 208, (2RS,3R)-3-amino-N-cyclobutyl-4-cyclohexyl-2-hydroxybutanamide Hydrochloride] is 1.5-fold lower in IC50: 4.1 µM for the first, 2.7 µM for the second. The second is the more potent here.

First: CC(CCc1ccccc1)NC(=O)C(O)[C@H](N)CC1CCCCC1 (mixture of isomers) [Example 209, (2RS,3R)-3-amino-4-cyclohexyl-2-hydroxy-N-(1-methyl-3-phenylpropyl)butanamide Hydrochloride]
Second: CC(Cc1ccccc1F)NC(=O)C(O)[C@H](N)CC1CCCCC1 (mixture of isomers) [Example 226, (2RS,3R)-3-amino-4-cyclohexyl-N-(2-(2-fluorophenyl)-1-methylethyl)-2-hydroxybutanamide Hydrochloride]
The IC50 of the first is 14-fold higher: 14 µM for the first, 0.97 µM for the second. The second is the more potent here.

`CC(Cc1cccc(C(F)(F)F)c1)NC(=O)C(O)[C@H](N)CC1CCCCC1` (mixture of isomers) [Example 210, (2RS,3R)-3-amino-4-cyclohexyl-2-hydroxy-N-(1-methyl-2-(3-(trifluoromethyl)phenyl)ethyl)butanamide Hydrochloride] and `N[C@H](CC1CCCCC1)C(O)C(=O)NCc1cccc(OC(F)(F)F)c1` (mixture of isomers) [Example 236, (2RS,3R)-3-amino-4-cyclohexyl-2-hydroxy-N-(3-(trifluoromethoxy)benzyl)butanamide Hydrochloride] are within 1.5-fold of each other in IC50: 2.3 µM for the first, 1.9 µM for the second.

`CCCCCC(C)NC(=O)C(O)[C@H](N)CC1CCCCC1` (mixture of isomers) [Example 212, (2RS,3R)-3-amino-4-cyclohexyl-2-hydroxy-N-(1-methylhexyl)butanamide Hydrochloride] and `CC(C)CCC(C)NC(=O)C(O)[C@H](N)CC1CCCCC1` (mixture of isomers) [Example 217, (2RS,3R)-3-amino-4-cyclohexyl-N-(1,4-dimethylpentyl)-2-hydroxybutanamide Hydrochloride] are within 1.5-fold of each other in IC50: 1.7 µM for the first, 1.8 µM for the second.

`CC(C)OCCCNC(=O)C(O)[C@H](N)CC1CCCCC1` (mixture of isomers) [Example 213, (2RS,3R)-3-amino-4-cyclohexyl-2-hydroxy-N-(3-isopropoxypropyl)butanamide Hydrochloride] and `CC(C)COCCCNC(=O)C(O)[C@H](N)CC1CCCCC1` (mixture of isomers) [Example 214, (2RS,3R)-3-amino-4-cyclohexyl-2-hydroxy-N-(3-isobutoxypropyl)butanamide Hydrochloride] are within 1.5-fold of each other in IC50: 2.6 µM for the first, 2.8 µM for the second.

Compared with `N[C@H](CC1CCCCC1)C(O)C(=O)Nc1ccc(N2CCOCC2)cc1` (mixture of isomers) [Example 215, (2RS,3R)-3-amino-4-cyclohexyl-2-hydroxy-N-(4-(4-morpholinyl)phenyl)butanamide Hydrochloride], `N[C@H](CC1CCCCC1)C(O)C(=O)Nc1ccc2c(c1)OCCO2` (mixture of isomers) [Example 222, (2RS,3R)-3-amino-4-cyclohexyl-N-(2,3-dihydro-1,4-benzodioxin-6-yl)-2-hydroxybutanamide Hydrochloride] is 6.5-fold lower in IC50: 1.3 µM for the first, 0.2 µM for the second. The second is the more potent here.

Going from `N[C@H](CC1CCCCC1)C(O)C(=O)NCCC(c1ccccc1)c1ccccc1` (mixture of isomers) [Example 216, (2RS,3R)-3-amino-4-cyclohexyl-N-(3,3-diphenylpropyl)-2-hydroxybutanamide Hydrochloride] to `N[C@H](CC1CCCCC1)C(O)C(=O)Nc1cccc(OCc2ccccc2)c1` (mixture of isomers) [Example 223, (2RS,3R)-3-amino-N-(3-(benzyloxy)phenyl)-4-cyclohexyl-2-hydroxybutanamide Hydrochloride], the IC50 falls from 1.8 µM to 0.88 µM (2-fold).

First: C[C@@H](c1cccc2ccccc12)N(C)C(=O)C(O)[C@H](N)CC1CCCCC1 (mixture of isomers) [Example 219, (2RS,3R)-3-amino-4-cyclohexyl-2-hydroxy-N-methyl-N-((1S)-1-(1-naphthyl)ethyl)butanamide Hydrochloride]
Second: COc1ccc(-c2ccccc2)cc1NC(=O)C(O)[C@H](N)CC1CCCCC1 (mixture of isomers) [Example 221, (2RS,3R)-3-amino-4-cyclohexyl-2-hydroxy-N-(4-methoxy(1,1'-biphenyl)-3-yl)butanamide Hydrochloride]
The IC50 of the first is 3-fold lower: 1.8 µM for the first, 5.4 µM for the second. The first is the more potent here.

Compared with `COc1ccc(C(F)(F)F)cc1NC(=O)C(O)[C@H](N)CC1CCCCC1` (mixture of isomers) [Example 220, (2RS,3R)-3-amino-4-cyclohexyl-2-hydroxy-N-(2-methoxy-5-(trifluoromethyl)phenyl)butanamide Hydrochloride], `N[C@H](CC1CCCCC1)C(O)C(=O)NCc1ccccc1C(F)(F)F` (mixture of isomers) [Example 238, (2RS,3R)-3-amino-4-cyclohexyl-2-hydroxy-N-(2-(trifluoromethyl)benzyl)butanamide] is 2-fold lower in IC50: 5.5 µM for the first, 2.7 µM for the second. The second is the more potent here.

First: CCOc1cccc(NC(=O)C(O)[C@H](N)CC2CCCCC2)c1 (mixture of isomers) [Example 224, (2RS,3R)-3-amino-4-cyclohexyl-N-(3-ethoxyphenyl)-2-hydroxybutanamide Hydrochloride]
Second: CC(C)(Cc1ccc(F)cc1)NC(=O)C(O)[C@H](N)CC1CCCCC1 (mixture of isomers) [Example 227, (2RS,3R)-3-amino-4-cyclohexyl-N-(2-(4-fluorophenyl)-1,1-dimethylethyl)-2-hydroxybutanamide Hydrochloride]
The IC50 of the first is 2-fold lower: 0.43 µM for the first, 0.88 µM for the second. The first is the more potent here.

Going from `COc1cc(NC(=O)C(O)[C@H](N)CC2CCCCC2)cc(OC)c1OC` (mixture of isomers) [Example 225, (2RS,3R)-3-amino-4-cyclohexyl-2-hydroxy-N-(3,4,5-trimethoxyphenyl)butanamide Hydrochloride] to `CC(C)CC(C)NC(=O)C(O)[C@H](N)CC1CCCCC1` (mixture of isomers) [Example 231, (2RS,3R)-3-amino-4-cyclohexyl-N-(1,3-dimethylbutyl)-2-hydroxybutanamide Hydrochloride], the IC50 rises from 0.35 µM to 2.5 µM (7.1-fold).

`N[C@H](CC1CCCCC1)C(O)C(=O)NC1CCc2ccccc21` (mixture of isomers) [Example 228, (2RS,3R)-3-amino-4-cyclohexyl-N-(2,3-dihydro-1H-inden-1-yl)-2-hydroxybutanamide Hydrochloride] and `N[C@H](CC1CCCCC1)C(O)C(=O)N[C@H]1C[C@@H]1c1ccccc1` (mixture of isomers) [Example 229, (2RS,3R)-3-amino-4-cyclohexyl-2-hydroxy-N-((1S,2R)-2-phenylcyclopropyl)butanamide Hydrochloride] are within 1.5-fold of each other in IC50: 0.93 µM for the first, 1.2 µM for the second.

Compared with `CC(C)(C)CC(C)(C)NC(=O)C(O)[C@H](N)CC1CCCCC1` (mixture of isomers) [Example 230, (2RS,3R)-3-amino-4-cyclohexyl-2-hydroxy-N-(1,1,3,3-tetramethylbutyl)butanamide Hydrochloride], `N[C@H](CC1CCCCC1)C(O)C(=O)NCc1cc(C(F)(F)F)cc(C(F)(F)F)c1` (mixture of isomers) [Example 237, (2RS,3R)-3-amino-N-(3,5-bis(trifluoromethyl)benzyl)-4-cyclohexyl-2-hydroxybutanamide Hydrochloride] is 6.7-fold lower in IC50: 34 µM for the first, 5.1 µM for the second. The second is the more potent here.

Compared with `CC(NC(=O)C(O)[C@H](N)CC1CCCCC1)C12CC3CC(CC(C3)C1)C2` (mixture of isomers) [Example 233, (2RS,3R)-N-(1-(1-adamantyl)ethyl)-3-amino-4-cyclohexyl-2-hydroxybutanamide Hydrochloride], `CCNC(=O)[C@H](C)NC(=O)C(O)[C@@H](N)CCSC` (stereo partly drawn) [Example 2, (2RS,3S,1'S)-N-((1-Ethylcarboxamido)ethyl)-3-amino-2-hydroxy-5-(methylthio)pentanamide hydrochloride] is 17-fold higher in IC50: 2.7 µM for the first, 47 µM for the second.

First: CCNC(=O)[C@H](C)NC(=O)C(O)[C@H](N)CCSC (stereo partly drawn) [Example 3, (2RS,3R,1'S)-N-((1-Ethylcarboxamido)ethyl)-3-amino-2-hydroxy-5-(methylthio)pentanamide hydrochloride]
Second: CCOC(=O)CCNC(=O)C(O)[C@H](N)CCSCC (stereo partly drawn) [Example 14, (2RS,3R)-N-(3-(carboethoxy)ethyl)-3-amino-2-hydroxy-5-(ethylthio)pentanamide hydrochloride]
The IC50 of the first is 14-fold higher: 10 µM for the first, 0.72 µM for the second. The second is the more potent here.

`CSCC[C@@H](N)C(O)C(=O)NCCc1ccccc1` (stereo partly drawn) [Example 5, (2RS,3R)-N-((2-phenylethyl)-3-amino-2-hydroxy-5-(methylthio)pentanamide hydrochloride] and `CSCC[C@@H](N)C(O)C(=O)NCCCc1ccccc1` (stereo partly drawn) [Example 6, (2RS,3R)-N-((3-phenylpropyl)-3-amino-2-hydroxy-5-(methylthio)pentanamide hydrochloride] are within 1.5-fold of each other in IC50: 2.6 µM for the first, 3 µM for the second.

Going from `CSCC[C@@H](N)C(O)C(=O)NCCc1ccc(S(N)(=O)=O)cc1` (stereo partly drawn) [Example 9, (2RS,3R)-N-(2-(4-sulfonamidophenyl)ethyl)-3-amino-2-hydroxy-5-(methylthio)pentanamide hydrochloride] to `CSCC[C@@H](N)C(O)C(=O)NCCc1ccccn1` (stereo partly drawn) [Example 10, (2RS,3R)-N-(2-(2-pyridyl)ethyl)-3-amino-2-hydroxy-5-(methylthio)pentanamidedihydrochloride], the IC50 rises from 2.3 µM to 3.6 µM (1.6-fold).

Compared with `CCSCC[C@@H](N)C(O)C(=O)NCCCCc1ccccc1` (stereo partly drawn) [Example 13, (2RS,3R)-N-(4-phenyl)butyl)-3-amino-2-hydroxy-5-(ethylthio)pentanamide hydrochloride], `CCSCC[C@@H](N)C(O)C(=O)NCCC(=O)OCc1ccccc1` (stereo partly drawn) [Example 15, (2RS,3R)-N-(3-(carbobenzyloxy)ethyl)-3-amino-2-hydroxy-5-(ethylthio)pentanamide hydrochloride] is 1.5-fold lower in IC50: 1.1 µM for the first, 0.72 µM for the second.

Same assay, conditions: recombinant MetAP2 4 μg/mL, pH 7.4, Met-Ala-Ser substrate, 20 minutes; read-out: IC50

Molecule `CCSC(C)[C@H](NC(=O)OC(C)(C)C)C(O)C(=O)NC(=O)CCCc1ccccc1` (mixture of isomers) [Example 37, (2RS,3R)-N-((phenylbutyryl)-3-tert-butoxycarbonylamino-2-hydroxy-4-ethylthio)pentanamide] has an IC50 of 16 µM.
